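These data come from cells grown in 96-well plates and exposed to compound for 48 hours at five concentrations. At the GI50, growth is halved.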 Calls of active or inactive are those of the source. Rule as the data show it: active = GI50 up to about 1.1 µM and inactive = higher.
Assays:
Assay in all cases: NCI tumour cell line growth inhibition, 48 h
UACC-257 = test system: UACC-257
IGROV-1 = test system: IGROV-1
SK-OV-3 = test system: SK-OV-3
T47D = test system: T47D
CCRF-CEM = test system: CCRF-CEM
786-0 = test system: 786-0
SN12C = test system: SN12C
HT-29 = test system: HT-29
Hs-578T = test system: Hs-578T
SK-MEL-5 = test system: SK-MEL-5
PC-3 = test system: PC-3
SNB-19 = test system: SNB-19
SF-295 = test system: SF-295
EKVX = test system: EKVX
HOP-92 = test system: HOP-92
UO-31 = test system: UO-31
MDA-MB-231 = test system: MDA-MB-231
HCC 2998 = test system: HCC 2998
Malme-3M = test system: Malme-3M
NCI/ADR-RES = test system: NCI/ADR-RES

SMILES	GI50 (UACC-257)	GI50 (IGROV-1)	GI50 (SK-OV-3)	GI50 (T47D)	GI50 (CCRF-CEM)	GI50 (786-0)	GI50 (SN12C)	GI50 (HT-29)	GI50 (Hs-578T)	GI50 (SK-MEL-5)	GI50 (PC-3)	GI50 (SNB-19)	GI50 (SF-295)	GI50 (EKVX)	GI50 (HOP-92)	GI50 (UO-31)	GI50 (MDA-MB-231)	GI50 (HCC 2998)	GI50 (Malme-3M)	GI50 (NCI/ADR-RES)
COc1cccc2c1C(=O)c1c(O)c3c(c(O)c1C2=O)C[C@@](O)(/C(C)=N\O)C[C@@H]3OC1CC(N)C(O)C(C)O1 (some centres undefined)	1.78 µM (inactive)	0.76 µM (active)	2.23 µM (inactive)	0.723 µM (active)	0.187 µM (active)	1.06 µM (active)	0.741 µM (active)	1.34 µM (inactive)	1.77 µM (inactive)	0.643 µM (active)	1.36 µM (inactive)	0.78 µM (active)	1.38 µM (inactive)	3.19 µM (inactive)	1.08 µM (active)	10 µM (inactive)	2.51 µM (inactive)	0.834 µM (active)	0.755 µM (active)	–
CCOP(=O)(/C=C\n1cnc2c(=O)n(C(C)=O)c(N)nc21)OCC	> 100 µM (inactive)	> 100 µM (inactive)	> 100 µM (inactive)	> 100 µM (inactive)	> 100 µM (inactive)	> 100 µM (inactive)	> 100 µM (inactive)	> 100 µM (inactive)	–	> 100 µM (inactive)	22.5 µM (inactive)	> 100 µM (inactive)	> 100 µM (inactive)	> 100 µM (inactive)	–	–	69.7 µM (inactive)	–	–	> 100 µM (inactive)
NN/C(=N\S(=O)(=O)c1cc2ccccc2s1)Nc1ccc(Cl)cc1	18.5 µM (inactive)	17.3 µM (inactive)	34.9 µM (inactive)	17.8 µM (inactive)	–	19.6 µM (inactive)	22 µM (inactive)	19.9 µM (inactive)	–	17.9 µM (inactive)	22.2 µM (inactive)	27 µM (inactive)	19.9 µM (inactive)	19.2 µM (inactive)	19 µM (inactive)	18 µM (inactive)	20.1 µM (inactive)	–	–	20 µM (inactive)
COc1cccc2c1C(=O)c1c(O)c3c(c(O)c1C2=O)C[C@@](O)(C(=O)CO)CC3OC1CC(O)C(O)C(C)O1 (some centres undefined)	0.453 µM (active)	0.333 µM (active)	0.235 µM (active)	0.286 µM (active)	0.0217 µM (active)	0.103 µM (active)	0.115 µM (active)	0.354 µM (active)	–	0.142 µM (active)	0.274 µM (active)	0.0822 µM (active)	0.104 µM (active)	1.72 µM (inactive)	0.138 µM (active)	0.421 µM (active)	0.565 µM (active)	0.562 µM (active)	0.141 µM (active)	1.13 µM (inactive)
CSc1nc(=S)[nH]c2c1c(C)nn2-c1ccccc1	20.5 µM (inactive)	–	24.8 µM (inactive)	19.1 µM (inactive)	10.6 µM (inactive)	24.3 µM (inactive)	21.1 µM (inactive)	28.5 µM (inactive)	38 µM (inactive)	13.1 µM (inactive)	25.7 µM (inactive)	23.3 µM (inactive)	22.9 µM (inactive)	18.1 µM (inactive)	7.1 µM (inactive)	22 µM (inactive)	22.2 µM (inactive)	30.6 µM (inactive)	17.1 µM (inactive)	–
Cc1nnc2sc(NN)nn12	> 100 µM (inactive)	> 100 µM (inactive)	> 100 µM (inactive)	> 100 µM (inactive)	41.4 µM (inactive)	> 100 µM (inactive)	> 100 µM (inactive)	> 100 µM (inactive)	> 100 µM (inactive)	> 100 µM (inactive)	> 100 µM (inactive)	> 100 µM (inactive)	> 100 µM (inactive)	> 100 µM (inactive)	–	> 100 µM (inactive)	> 100 µM (inactive)	–	> 100 µM (inactive)	> 100 µM (inactive)
CC(=O)[C@H]1[C@H](O)C[C@@]2(C)[C@@H]3CCc4cc(O)c(OC5OC(CO)C(O)C(O)C5O)cc4C3(C)C(=O)C[C@]12C (some centres undefined)	> 100 µM (inactive)	> 100 µM (inactive)	> 100 µM (inactive)	> 100 µM (inactive)	> 100 µM (inactive)	> 100 µM (inactive)	> 100 µM (inactive)	> 100 µM (inactive)	–	> 100 µM (inactive)	> 100 µM (inactive)	> 100 µM (inactive)	> 100 µM (inactive)	> 100 µM (inactive)	> 100 µM (inactive)	> 100 µM (inactive)	> 100 µM (inactive)	> 100 µM (inactive)	> 100 µM (inactive)	> 100 µM (inactive)

From ChEMBL document CHEMBL1201862, “PubChem BioAssay data set” (2004)
